Assay results taken from US5175158A, “Condensed diazepinones, processes for preparing them and pharmaceutical compositions containing these compounds” (Dr. Karl Thomae, GmbH, priority 1987, dated 1992).
pIC50: −log10 of the molar value.

Key:
[1] = biological target: muscarinic receptors (cerebral cortex); assay: Receptor binding test in vitro, cerebral cortex (3H-N-methylscopolamine displacement); set-up: species or system rat (male Sprague-Dawley); details: 0.3 nanomolar 3H-NMS, 30° C., 45 minutes, pH 7.4
Method: (§1) The organs were donated by male Sprague-Dawley rats weighing 180-220 g. After the heart and submandibular gland and cerebral cortex had been removed, all other steps were carried out in ice cold Hepes HCl buffer (pH 7.4; 100 millimolar NaCl, 10 millimolar MgCl2). The whole heart was cut up with scissors. All the organs were then homogenised in a Potter apparatus.
(§2) For the binding test the homogenised organs were diluted as follows:
(§3) The homogenised organs were incubated at a certain concentration of the radioaligned and at a series of concentrations of the non-radioactive test substances in an Eppendorf centrifuge tube at 30° C. Incubation lasted 45 minutes. The radioligand used was 0.3 nanomolar ^3 H-N-methylscopolamine (^3 H-NMS). Incubation was ended by the addition of ice cold buffer followed by vacuum filtration. The filters were rinsed with cold buffer and their radioactivity was determined. It represents the sum of specific and non-specific binding of ^3 H-NMS. The proportion of non-specific binding was defined as the radioactivity which was bound in the presence of 1 micromolar quinuclidinylbenzylate. Each measurement was taken four times. The IC50 values of the non-labelled test substances were determined graphically. They represent that concentration of test substance at which the specific binding of ^3 H-NMS to the muscarinic receptors in the various organs was inhibited by 50%. […] PG,17

[2] = biological target: T1, muscarinic receptors (heart) (Rattus norvegicus, UniProt P10980); assay: Receptor binding test in vitro, heart (3H-N-methylscopolamine displacement); set-up: species or system rat (male Sprague-Dawley); details: whole heart; 0.3 nanomolar 3H-NMS; 30° C.; 45 minutes; pH 7.4
T1 construct: The whole heart was cut up with scissors; All the organs were then homogenised in a Potter apparatus; from tissue; host or cells: rat whole heart homogenate
T1 sequence (P10980 1-466): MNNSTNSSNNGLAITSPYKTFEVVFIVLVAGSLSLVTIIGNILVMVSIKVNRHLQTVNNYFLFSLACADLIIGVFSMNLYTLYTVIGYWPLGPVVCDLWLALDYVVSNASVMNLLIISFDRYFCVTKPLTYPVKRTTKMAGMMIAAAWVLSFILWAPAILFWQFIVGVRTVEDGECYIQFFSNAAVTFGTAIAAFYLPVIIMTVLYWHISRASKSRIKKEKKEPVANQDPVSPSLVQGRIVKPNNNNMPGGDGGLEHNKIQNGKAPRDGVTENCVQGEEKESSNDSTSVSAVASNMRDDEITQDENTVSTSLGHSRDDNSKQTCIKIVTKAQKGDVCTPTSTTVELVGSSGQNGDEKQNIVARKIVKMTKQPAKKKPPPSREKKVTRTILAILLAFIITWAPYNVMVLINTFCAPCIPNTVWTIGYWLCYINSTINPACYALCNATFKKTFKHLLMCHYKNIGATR
Method: as §1, §2, §3

[3] = biological target: T2, muscarinic receptors (submandibular gland) (Rattus norvegicus, UniProt P08483); assay: Receptor binding test in vitro, submandibular gland (3H-N-methylscopolamine displacement); set-up: species or system rat (male Sprague-Dawley); details: 0.3 nanomolar 3H-NMS, 30° C., 45 minutes, pH 7.4
T2 construct: All the organs were then homogenised in a Potter apparatus; from tissue; host or cells: rat submandibular gland homogenate
T2 sequence (P08483 whole entry): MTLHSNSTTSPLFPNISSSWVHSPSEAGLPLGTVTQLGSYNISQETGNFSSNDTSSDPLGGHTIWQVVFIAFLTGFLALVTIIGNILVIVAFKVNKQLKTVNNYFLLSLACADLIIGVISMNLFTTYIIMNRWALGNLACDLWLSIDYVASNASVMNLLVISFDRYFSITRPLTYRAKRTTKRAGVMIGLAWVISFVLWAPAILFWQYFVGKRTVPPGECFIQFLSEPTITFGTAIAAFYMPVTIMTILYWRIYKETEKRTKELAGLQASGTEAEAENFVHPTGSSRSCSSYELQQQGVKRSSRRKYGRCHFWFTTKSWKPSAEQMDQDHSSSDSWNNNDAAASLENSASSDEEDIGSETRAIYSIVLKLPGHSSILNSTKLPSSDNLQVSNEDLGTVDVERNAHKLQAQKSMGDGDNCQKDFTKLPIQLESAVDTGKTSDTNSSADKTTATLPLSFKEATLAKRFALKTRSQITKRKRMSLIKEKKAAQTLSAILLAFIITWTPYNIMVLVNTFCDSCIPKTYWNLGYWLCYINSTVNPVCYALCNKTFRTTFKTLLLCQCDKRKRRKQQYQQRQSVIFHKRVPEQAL
Method: as §1, §2, §3

vagal bradycardia (M2) = assay: M1/M2 selectivity in the rat: reduction of vagal bradycardia (M2); type: in vivo, rat (male THOM); details: iv, 5 minutes before vagus stimulation, 50% reduction of vagal bradycardia (M2), read-out: log ED50, Heart (converted)
Method: (§4) The dosage of the substances which reduced either the vagal bradycardia (M2) or the rise in blood pressure (M1) by 50% was determined graphically. For the results see Table II.

[4] = tested on: rise in blood pressure (M1); assay: M1/M2 selectivity in the rat: reduction of rise in blood pressure caused by McN-A-343 (M1); type: in vivo, rat (male THOM); details: iv, 5 minutes before 0.3 mg/kg McN-A-343 i.v., 50% reduction of rise in blood pressure (M1), read-out: log ED50, Blood pressure (converted)
Method: as §4

secretion of saliva = assay: Salivation-inhibiting effect in the rat (pilocarpine); type: in vivo, rat (male THOM); details: iv; urethane-anaesthetised rat; i.v.; 2 mg/kg pilocarpine s.c.; 50% reduction of saliva volume; read-out: log ED50, Salivation (converted)
Method: The secretion of saliva was initiated by subcutaneous administration of 2 mg/kg of pilocarpine. The saliva was absorbed with blotting paper and the surface area covered was measured every 5 minutes by planimetry. The dosage of the substance which reduced the volume of saliva by 50% was determined graphically. For the results see Table II.

[5] = tested on: acetylcholine activity on heart rate; assay: Inhibition of acetylcholine activity on heart rate in the guinea pig; type: in vivo; details: Cavia porcellus, iv, 5 min; anaesthetised guinea pig; 5 minutes after test substance; 10 microgram/kg acetylcholine i.v. and i.a.; heart rate by ECG; read-out: log ED50, Heart (converted)
Method: (§5) 5 minutes after the administration of the test substance, 10 microgram/kg of acetylcholine were simultaneously injected intravenously and intra-arterially into anaesthetised guinea pigs. The heart rate was recorded directly by extracorporeal derivation of the ECG, the expiration resistance according to Konzett-Rossler and contraction of the exposed bladder. In order to determine the inhibition of the acetylcholine activity on the organs under investigation, dosage/activity curves were recorded and from them -log ED50 values were determined. […] The following compounds for example were investigated as described above: […]

[6] = tested on: acetylcholine activity on bronchi; assay: Inhibition of acetylcholine activity on the bronchi in the guinea pig; type: in vivo; details: Cavia porcellus, iv, 5 min; anaesthetised guinea pig; 5 minutes after test substance; 10 microgram/kg acetylcholine i.v. and i.a.; expiration resistance (Konzett-Rossler); read-out: log ED50, Bronchi (converted)
Method: as §5

[7] = tested on: acetylcholine activity on bladder; assay: Inhibition of acetylcholine activity on the bladder in the guinea pig; type: in vivo; details: Cavia porcellus, iv, 5 min; anaesthetised guinea pig; 5 minutes after test substance; 10 microgram/kg acetylcholine i.v. and i.a.; contraction of exposed bladder; read-out: log ED50, Bladder (converted)
Method: as §5

SMILES | pIC50 [1] | pIC50 [2] | pIC50 [3] | ED50 (vagal bradycardia (M2)) | ED50 [4] | ED50 (secretion of saliva) | ED50 [5] | ED50 [6] | ED50 [7]
Cc1scc2c1N(C(=O)CN1CCC(CCCN3CCCCC3)CC1)c1ccccc1NC2=O [A] | 7.22 | 8.30 | 6.70 | 0.0724 µmol/kg | 1.51 µmol/kg | 6.31 µmol/kg | 0.123 µmol/kg | 0.282 µmol/kg | 2.75 µmol/kg
O=C1Nc2cccnc2N(C(=O)CN2CCC(CCCN3CCCCC3)CC2)c2ccccc21 [B] | 6.70 | 7.70 | 6.26 |  |  |  | 0.123 µmol/kg | 0.468 µmol/kg | 1.82 µmol/kg
O=C1Nc2cccnc2N(C(=O)CN2CCC(CCCCN3CCCCC3)CC2)c2ccccc21 [C] | 7.30 | 8.05 | 6.70 | 0.115 µmol/kg | 3.8 µmol/kg | > 31.6 µmol/kg | 0.0871 µmol/kg | 0.661 µmol/kg | 2.63 µmol/kg
CN1CCC(CCCC2CCN(CC(=O)N3c4ccccc4C(=O)Nc4cccnc43)CC2)CC1 [D] | 6.30 | 7.30 | 5.82 |  |  |  | 0.355 µmol/kg | 0.851 µmol/kg | > 10 µmol/kg
CN1CCN(CC(=O)N2c3ccccc3C(=O)Nc3cccnc32)CC1 [F] |  |  |  |  |  |  | 1.41 µmol/kg | 0.269 µmol/kg | 4.37 µmol/kg
CN1[C@@H]2CC[C@H]1CC(OC(=O)C(CO)c1ccccc1)C2 (stereo partly drawn) [G] |  |  |  | 0.0115 µmol/kg | 0.0457 µmol/kg |  | 0.02 µmol/kg |  | 0.0933 µmol/kg
CCN(CC)CC1CCCCN1CC(=O)N1c2ccccc2C(=O)Nc2cccnc21 (stereo not drawn) [Substance E, 11-[[2-[(diethylamino)methyl]-1-piperidinyl]acetyl]-5,11-dihydro-6H-pyrido [2,3-b][1,4]benzodiazepin-6-one, reference compound] |  |  |  | 0.38 µmol/kg |  | 10 µmol/kg | 1.45 µmol/kg | 2.63 µmol/kg | 18.6 µmol/kg
